Test results: patent publication EP3822285A1, “VARIANT NISIN PEPTIDES” (University College Cork-National University of Ireland, Cork, priority 2019, dated 2021)
In brackets after ≈: the same amount, converted by molar mass. Several values for one entry are separate records, joined by “and”; a condition that tells them apart may be missing. Identical values can stand only once. Marks after values point to notes of the source that are not given here.

What was measured:
Format in all cases: cell-based
L. lactis HP [1] = assay: Deferred antagonism assay; conditions: producing strain
Experimental: (§1) Mutagenesis of the nisA gene was carried out as described previously (Field et al., 2008). Briefly, saturation mutagenesis was carried out using pDF05 (pCI372-nisA) as template and using oligonucleotides containing an NNK codon in place of each native codon. PCR amplification was performed in a 50 µl reaction containing approximately 0.5 ng of target DNA (pDF05), 1 unit Phusion High-Fidelity DNA polymerase (Finnzymes, Finland), 1 mM dNTPs and 500 ng each of the appropriate forward and reverse oligonucleotide. The reaction was pre-heated at 98°C for 2 min, and then incubated for 29 cycles at 98°C for 30 s, 55°C for 15 s and 72°C for 3 min 30 s, and then finished by incubating at 72°C for 3 min 30 s. Amplified products were treated with Dpn1 (Stratagene) for 60 min at 37°C to digest template DNA and purified using the QIAquick PCR purification kit. Following transformation of E. coli Top 10 cells plasmid DNA was isolated and sequenced using primers pCI372FOR (5' […] 3') and pCI372REV (5' […] 3') to verify that mutagenesis had taken place. Approximately 150 transformants were chosen at random for each position and inoculated into 96-well plates containing GM17 chloramphenicol, incubated overnight and stored at -20°C after addition of 80% glycerol. Deferred antagonism assays were performed by replicating strains on GM17 agar plates and allowing them to grow overnight before overlaying with BHI agar (0.75% w/v agar) seeded with the appropriate indicator strain.
(§2) Previously, site-saturation mutagenesis-based strategies were used to generate strains producing bioengineered nisin derivatives in which all residues not involved in lanthionine ring formation (i.e. I1, T2, 14, S5, L6, P9, G10, K12, G14, A15, L16, M17, G18, N20, M21, K22, A24, H27, S29 130, H31, V32, S33 and K34) were each randomised to potentially all other natural amino acids, or whereby all three residues of the hinge-region (NMK) were randomised simultaneously (Rouse et al., 2012, Healy et al., 2013, Field et al., 2008). […] From this screen 76 variants of interest from the first round of screening were incorporated into a "mini-bank" for subsequent further analysis. The number of indicator strains was increased from five to thirteen to include S. uberis 43382, S. uberis DPC5344, S. dysgalactiae ATCC43078, L. lactis 303, L. cremoris KH, Lactobacillus bulgaricus NCDO2489, Lb. helveticus 2079 and Lb. acidophilus ATCC4356 (Table 1). Following this second round of screening, 6 variants of interest were deemed worthy of closer inspection. DNA sequencing of the mutated nisin gene as well as mass spectrometric analysis of the peptide produced by each strain established that these corresponded to nisin M17Q (methionine at position 17 altered to glutamine), nisin T2L (threonine 2 leucine) nisin HTK, VGA, VGV or VGT (where the hinge residues Asn-Met-Lys have been altered to His-Thr-Lys, Val-Gly-Ala, Val-Gly-Val or Val-Gly-Thr respectively). […] As a result, these derivatives were eliminated from this study, but will be the subject of further investigation as potential anti-mastitis antimicrobials. […] In the case of the derivatives nisin T2L and nisin HTK, the activity appeared reduced and equivalent to nisin A respectively (Figure 1), while improved activity was observed by both derivatives against S. agalactiae ATCC13813 and S. aureus RF122 (Table 2). On this basis, the nisin derivatives M17Q, T2L and HTK were selected for purification and specific activity assays. Purified peptides were subjected to Mass Spectrometry to confirm the correct mass in each case. In the case of T2L and HTK derivatives, the threonine remained in the unmodified form (data not shown).

L. lactis MG1363 = assay: Deferred antagonism assay; conditions: producing strain
Experimental: as §1, §2

S. agalactiae ATCC13813 = assay: Deferred antagonism assay; conditions: producing strain
Experimental: as §1, §2

S. aureus RF122 = assay: Deferred antagonism assay; conditions: producing strain
Experimental: as §1, §2

B. longum UCC 44b = test system: B. longum UCC 44b
Experimental: (§3) Minimum inhibitory concentration determinations were carried out in triplicate in 96 well microtitre plates. 96 well microtitre plates were pre-treated with bovine serum albumin (BSA) prior to addition of the peptides. Briefly, to each well of the microtitre plate 200 µL of phosphate buffered saline (PBS) containing 1% (w/v) bovine serum albumin (PBS/BSA) was added and incubated at 37°C for 30 min. The wells were washed with 200 µL PBS and allowed to dry. Target strains were grown overnight in the appropriate conditions and medium, subcultured into fresh broth and allowed to grow to an OD600 of ∼0.5, diluted to a final concentration of 10^5 cfu ml^-1 in a volume of 0.2 ml. The lyophilised peptides were resuspended in the appropriate media to a stock concentration of 30 µM. Wild type nisin and nisin mutant peptides were adjusted to a 7.5 or 5.0 µM or 500 nM starting concentration and 2-fold serial dilutions of each peptide were made in 96 well plates for a total of 12 dilutions.
(§4) To confirm that the observed enhanced activity of the nisin variants was due to increased specific activity, the activity of purified peptides were assessed using classical broth-based minimum inhibitory concentration (MIC) determination assays. […] Also included were the lactic acid bacteria targets L. lactis MG1363, L. lactis spp. lactis HP, B. longum UCC44b and Lb acidophilus ATCC 4356.

[2] = test system: Lb. acidophilus ATCC 4356
Experimental: as §3, §4

L. lactis HP [3] = assay: Minimum inhibitory concentration assay
Experimental: as §3, §4

S. aureus 272 = assay: Minimum inhibitory concentration assay
Experimental: as §3, §4

S. aureus 513 = assay: Minimum inhibitory concentration assay; conditions: purified peptide
Experimental: as §3, §4

S. aureus 5971 = assay: Minimum inhibitory concentration assay
Experimental: as §3, §4

S. aureus DPC 5243 = assay: Minimum inhibitory concentration assay; conditions: purified peptide
Experimental: as §3, §4

S. aureus DPC 5245 = assay: Minimum inhibitory concentration assay; conditions: purified peptide
Experimental: as §3, §4

S. aureus DPC 5247 = assay: Minimum inhibitory concentration assay; conditions: purified peptide
Experimental: as §3, §4

S. aureus ST528(MRSA) = assay: Minimum inhibitory concentration assay
Experimental: as §3, §4

S. aureus ST534(MRSA) = assay: Minimum inhibitory concentration assay
Experimental: as §3, §4

S. aureus strains = assay: Minimum inhibitory concentration assay, panel of S. aureus strains; conditions: panel of 12 S. aureus isolates; compared to nisin A
Experimental: as §3, §4

Thermus scotoductus SE-1 = assay: Agar diffusion assay with cell free supernatant of producing strains; conditions: zone diameter relative to Nisin A wild type (100)
Summary of the method: (§5)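 Cell-free supernatant (50 µl) from overnight nisin A or variant-producing L. lactis cultures placed in wells of Castenholz agar seeded with indicator strain. Plates incubated 55°C for 3 days; zone of clearance measured, reflecting combined peptide yield and specific activity; triplicate.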

[4] = test system: Thermus thermophilus HB27; assay: as above; conditions: zone diameter relative to Nisin A wild type (100)
Summary of the method: as §5

T. aquaticus = assay: Minimum inhibitory concentration assay (Thermus); conditions: pure peptide, mean of triplicate assays
Summary of the method: (§6)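 Purified peptides were tested in triplicate in BSA-pretreated wells containing Castenholz medium, at a final inoculum of ~10^5 cfu/ml. Plates were incubated 3 days at 55 °C, and MIC was taken as the lowest concentration with no visible growth.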

T. brockianus = assay: Minimum inhibitory concentration assay (Thermus); conditions: pure peptide, mean of triplicate assays
Summary of the method: as §6

T. oshimai = assay: Minimum inhibitory concentration assay (Thermus); conditions: pure peptide, mean of triplicate assays
Summary of the method: as §6

T. rehai = assay: Minimum inhibitory concentration assay (Thermus); conditions: pure peptide, mean of triplicate assays
Summary of the method: as §6

T. scotoductus SE-1 = assay: Minimum inhibitory concentration assay (Thermus); conditions: pure peptide, mean of triplicate assays
Summary of the method: as §6

T. thermophilus HB27 = assay: Minimum inhibitory concentration assay (Thermus); conditions: pure peptide, mean of triplicate assays
Summary of the method: as §6

C=C(NC(=O)[C@@H](NC(=O)[C@H](Cc1c[nH]cn1)NC(=O)[C@@H](NC(=O)[C@H](CO)NC(=O)[C@@H]1CS[C@@H](C)[C@H]2NC(=O)[C@H](C)NC(=O)[C@H](NC(=O)[C@H](CCCCN)NC(=O)[C@H](CCSC)NC(=O)[C@H](CC(N)=O)NC(=O)[C@@H]3CS[C@@H](C)[C@@H](NC(=O)[C@H](CCCCN)NC(=O)[C@@H]4CS[C@@H](C)[C@@H](NC(=O)[C@@H]5CSC[C@@H](NC(=O)[C@H](CC(C)C)NC(=O)[C@@H](N)[C@@H](C)CC)C(=O)N[C@@H]([C@@H](C)CC)C(=O)NC(=C)C(=O)N[C@@H](CC(C)C)C(=O)N5)C(=O)N5CCC[C@H]5C(=O)NCC(=O)N4)C(=O)NCC(=O)N[C@@H](C)C(=O)N[C@@H](CC(C)C)C(=O)N[C@@H](CCSC)C(=O)NCC(=O)N3)[C@H](C)SC[C@H](NC2=O)C(=O)N[C@@H](Cc2c[nH]cn2)C(=O)N1)[C@@H](C)CC)C(C)C)C(=O)N[C@@H](CCCCN)C(=O)O [T2L, nisin T2L]
zone of inhibition (area of the zone of inhibition minus the area of the spot) (L. lactis HP [1]): 134.12 ± 19.00 mm2 | zone of inhibition (area of the zone of inhibition minus the area of the spot) (L. lactis MG1363): 80.11 ± 12.18 mm2 | zone of inhibition (area of the zone of inhibition minus the area of the spot) (S. agalactiae ATCC13813): 194.44 ± 6.22 mm2 | zone of inhibition (area of the zone of inhibition minus the area of the spot) (S. aureus RF122): 100.05 ± 14.96 mm2 | fold decreased activity compared to wild type peptide (B. longum UCC 44b): 2 fold | fold reduction in specific activity compared to wild type nisin A [2]: 4 fold | Specific activity (MIC) ([2]; purified peptide): 0.12 Mg/L and 0.044 µM | fold reduction in potency (L. lactis HP [3]; compared to wild-type nisin A): 2 fold | Specific activity (MIC) (L. lactis HP [3]; purified peptide): 0.4 Mg/L and 0.125 µM | fold enhanced activity (S. aureus 272; compared to nisin A): 4 fold | Specific activity (MIC) (S. aureus 272; purified peptide): 0.75 Mg/L and 0.234 µM | Specific activity (MIC) (S. aureus 513): 3 Mg/L and 0.937 µM | fold improved activity (S. aureus 5971; compared to nisin A): 16 fold | Specific activity (MIC) (S. aureus 5971; purified peptide): 1.5 Mg/L and 0.468 µM | Specific activity (MIC) (S. aureus DPC 5243): 0.5 Mg/L and 0.156 µM | Specific activity (MIC) (S. aureus DPC 5245): 0.5 Mg/L and 0.156 µM | Specific activity (MIC) (S. aureus DPC 5247): 0.5 Mg/L and 0.156 µM | fold enhanced activity (S. aureus ST528(MRSA); S. aureus ST528 (MRSA), compared to nisin A): 4 fold | Specific activity (MIC) (S. aureus ST528(MRSA); S. aureus ST528(MRSA), purified peptide): 0.125 Mg/L and 0.039 µM | fold enhanced activity (S. aureus ST534(MRSA); S. aureus ST 534 (MRSA), compared to nisin A): 4 fold | Specific activity (MIC) (S. aureus ST534(MRSA); S. aureus ST534(MRSA), purified peptide): 0.25 Mg/L and 0.078 µM | number of S. aureus strains with enhanced specific activity (S. aureus strains): 9

C=C(NC(=O)[C@@H](NC(=O)[C@H](Cc1c[nH]cn1)NC(=O)[C@@H](NC(=O)[C@H](CO)NC(=O)[C@@H]1CS[C@@H](C)[C@H]2NC(=O)[C@H](C)NC(=O)[C@H](NC(=O)[C@H](C)NC(=O)CNC(=O)[C@@H](NC(=O)[C@@H]3CS[C@@H](C)[C@@H](NC(=O)[C@H](CCCCN)NC(=O)[C@@H]4CS[C@@H](C)[C@@H](NC(=O)[C@@H]5CSC[C@@H](NC(=O)/C(=C/C)NC(=O)[C@@H](N)[C@@H](C)CC)C(=O)N[C@@H]([C@@H](C)CC)C(=O)NC(=C)C(=O)N[C@@H](CC(C)C)C(=O)N5)C(=O)N5CCC[C@H]5C(=O)NCC(=O)N4)C(=O)NCC(=O)N[C@@H](C)C(=O)N[C@@H](CC(C)C)C(=O)N[C@@H](CCSC)C(=O)NCC(=O)N3)C(C)C)[C@H](C)SC[C@H](NC2=O)C(=O)N[C@@H](Cc2c[nH]cn2)C(=O)N1)[C@@H](C)CC)C(C)C)C(=O)N[C@@H](CCCCN)C(=O)O [VGA, nisin VGA]
zone of inhibition (area of the zone of inhibition minus the area of the spot) (L. lactis HP [1]): 362.16 ± 6.77 mm2 | zone of inhibition (area of the zone of inhibition minus the area of the spot) (L. lactis MG1363): 230.92 ± 4.04 mm2 | zone of inhibition (area of the zone of inhibition minus the area of the spot) (S. agalactiae ATCC13813): 234.96 ± 25.45 mm2 | zone of inhibition (area of the zone of inhibition minus the area of the spot) (S. aureus RF122): 138.17 ± 8.12 mm2 | % of wild type (Thermus scotoductus SE-1): 127* (0.022) % | % difference [4]: 169* (0.0002) % | MIC (T. aquaticus): 0.0156 µM (≈ 0.05 µg/mL) | MIC (T. brockianus): 0.125 µM (≈ 0.401 µg/mL) | MIC (T. oshimai): 0.0156 µM (≈ 0.05 µg/mL) | MIC (T. rehai): 0.125 µM (≈ 0.401 µg/mL) | MIC (T. scotoductus SE-1): 0.125 µM (≈ 0.401 µg/mL) | MIC (T. thermophilus HB27): 0.0312 µM (≈ 0.1 µg/mL)
